Experimental data taken from PubChem BioAssay (NCI).
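In this assay, cells in 96-well plates receive the compound at five concentrations for 48 hours. Endpoints are linearly interpolated between the surrounding concentrations. TGI is the concentration that stops growth completely.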

What was measured:
Assay in all cases: inhibition of tumour cell growth, NCI panel, 48 h
786-0 renal = tested on: 786-0 renal
A498 renal = tested on: A498 renal
A549 NSCLC = tested on: A549 NSCLC
ACHN renal = tested on: ACHN renal
BT-549 breast = tested on: BT-549 breast
CAKI-1 renal = tested on: CAKI-1 renal
CCRF-CEM leukemia = tested on: CCRF-CEM leukemia
COLO 205 colon = tested on: COLO 205 colon
DU-145 prostate = tested on: DU-145 prostate
EKVX NSCLC = tested on: EKVX NSCLC
HCT-116 colon = tested on: HCT-116 colon
HCT-15 colon = tested on: HCT-15 colon
HL-60(TB) leukemia = tested on: HL-60(TB) leukemia
HOP-62 NSCLC = tested on: HOP-62 NSCLC
HOP-92 NSCLC = tested on: HOP-92 NSCLC
HS 578T breast = tested on: HS 578T breast
HT29 colon = tested on: HT29 colon
IGROV1 ovarian = tested on: IGROV1 ovarian
K-562 leukemia = tested on: K-562 leukemia
KM12 colon = tested on: KM12 colon
LOX IMVI melanoma = tested on: LOX IMVI melanoma
M14 melanoma = tested on: M14 melanoma
MALME-3M melanoma = tested on: MALME-3M melanoma
MDA-MB-231 breast = tested on: MDA-MB-231 breast
MDA-MB-435 = tested on: MDA-MB-435
MDA-N = tested on: MDA-N
MOLT-4 leukemia = tested on: MOLT-4 leukemia
NCI-H226 lung = tested on: NCI-H226 lung
NCI-H23 lung = tested on: NCI-H23 lung
NCI-H460 lung = tested on: NCI-H460 lung
NCI-H522 lung = tested on: NCI-H522 lung
NCI/ADR-RES ovarian = tested on: NCI/ADR-RES ovarian
OVCAR-3 ovarian = tested on: OVCAR-3 ovarian
OVCAR-5 ovarian = tested on: OVCAR-5 ovarian
OVCAR-8 ovarian = tested on: OVCAR-8 ovarian
PC-3 prostate = tested on: PC-3 prostate
RPMI-8226 leukemia = tested on: RPMI-8226 leukemia
RXF 393 renal = tested on: RXF 393 renal
SF-268 CNS = tested on: SF-268 CNS
SF-295 CNS = tested on: SF-295 CNS
SF-539 CNS = tested on: SF-539 CNS
SK-MEL-2 melanoma = tested on: SK-MEL-2 melanoma
SK-MEL-28 melanoma = tested on: SK-MEL-28 melanoma
SK-MEL-5 melanoma = tested on: SK-MEL-5 melanoma
SK-OV-3 ovarian = tested on: SK-OV-3 ovarian
SN12C renal = tested on: SN12C renal
SNB-19 CNS = tested on: SNB-19 CNS
SNB-75 CNS = tested on: SNB-75 CNS
SW-620 colon = tested on: SW-620 colon
T-47D breast = tested on: T-47D breast
TK-10 renal = tested on: TK-10 renal
U251 CNS = tested on: U251 CNS
UACC-257 melanoma = tested on: UACC-257 melanoma
UACC-62 melanoma = tested on: UACC-62 melanoma
UO-31 renal = tested on: UO-31 renal

Measured: TGI

COC(=O)c1cnn2c1ccc1ccccc12
> 100 µM: all assays above
